Patent US10597388B2, “Pyridazinone herbicides” (FMC CORPORATION, priority 2014, dated 2020)

Key:
Type in all cases: in vivo
[1] = tested on: foxtail, giant (giant foxtail, Setaria faberii); experiment: Test C greenhouse herbicide test, pre- and postemergence
How it was run: (§1)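 Preemergence: seeds sown in a loam soil–sand blend and sprayed with test chemicals in a non-phytotoxic solvent mixture containing surfactant. Postemergence: plants grown in peat-based medium and treated at 2 to 18 cm (1- to 4-leaf stage). After 13 to 15 d in a greenhouse, injury was visually rated 0–100 against controls.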

[2] = tested on: lambsquarters (Chenopodium album); experiment: as above
How it was run: as §1

[3] = tested on: corn (Zea mays); experiment: as above
How it was run: as §1

[4] = tested on: johnsongrass (Sorghum halepense); experiment: as above
How it was run: as §1

[5] = tested on: ryegrass, Italian (Italian ryegrass, Lolium multiflorum); experiment: as above
How it was run: as §1

[6] = tested on: pigweed (Amaranthus retroflexus); experiment: as above
How it was run: as §1

[7] = tested on: waterhemp (common waterhemp, Amaranthus rudis); experiment: as above
How it was run: as §1

[8] = tested on: blackgrass (Alopecurus myosuroides); experiment: as above
How it was run: as §1

[9] = tested on: wheat (winter wheat, Triticum aestivum); experiment: as above
How it was run: as §1

[10] = tested on: morningglory (Ipomoea coccinea); experiment: as above
How it was run: as §1

[11] = tested on: barnyardgrass (Echinochloa crus-galli); experiment: as above
How it was run: as §1

[12] = tested on: soybean (Glycine max); experiment: as above
How it was run: as §1

[13] = tested on: crabgrass, large (large crabgrass, Digitaria sanguinalis); experiment: as above
How it was run: as §1

[14] = tested on: ragweed (common ragweed, Ambrosia elatior); experiment: as above
How it was run: as §1

[15] = tested on: kochia (Kochia scoparia); experiment: Test C greenhouse herbicide test, postemergence
How it was run: (§2)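 Steps: pot plants in peat-based medium; spray postemergence at 1- to 4-leaf stage; hold in greenhouse 13 to 15 d; score visually against controls from 0 (no effect) to 100 (complete control).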

[16] = tested on: oat, wild (wild oat, Avena fatua); experiment: Test C greenhouse herbicide test, postemergence
How it was run: as §2

[17] = Postemergence, 31 g ai/ha, 0 to 100 scale (0 no effect, 100 complete control)
[18] = Postemergence, 125 g ai/ha, scale 0 to 100, 0 is no effect, 100 is complete control
[19] = Postemergence, 250 g ai/ha, scale 0 to 100, 0 no effect, 100 complete control, 13 to 15 d
[20] = Preemergence, 31 g ai/ha, scale 0 to 100, 0 is no effect, 100 is complete control
[21] = Preemergence, 62 g ai/ha, scale 0 to 100, 0 is no effect, 100 is complete control
[22] = Preemergence, 125 g ai/ha, scale 0 to 100, 0 is no effect, 100 is complete control
[23] = Preemergence, 250 g ai/ha, scale 0 to 100 (0 no effect, 100 complete control)
[24] = postemergence, 62 g ai/ha, scale 0 to 100, 0 no effect, 100 complete control

For `COc1nn(C)c(=O)c(-c2c(C)ccc3ccccc23)c1O` [Compound 54], the “Foxtail, Giant plant response rating” value [1, 17] was 20, the “Plant response rating, Foxtail, Giant” value [1, 18] was 75 and the “Plant response rating, Foxtail, Giant” value [1, 19] was 90. The “Plant response rating, Foxtail, Giant” value [1, 20] was 70, the “Plant response rating, Foxtail, Giant” value [1, 21] was 80 and the “Plant response rating, Foxtail, Giant” value [1, 22] was 75. The “Foxtail, Giant plant response rating” value [1, 23] was 90, the “Foxtail, Giant plant response rating” value [1, 24] was 55 and the “Lambsquarters plant response rating” value [2, 17] was 95. The “Plant response rating, Lambsquarters” value [2, 18] was 100, the “Plant response rating, Lambsquarters” value [2, 19] was 100 and the “Plant response rating, Lambsquarters” value [2, 20] was 80. For the same compound, the “Plant response rating, Lambsquarters” value [2, 21] was 85, the “Plant response rating, Lambsquarters” value [2, 22] was 80 and the “Lambsquarters plant response rating” value [2, 23] was 80. For the same compound, the “Lambsquarters plant response rating” value [2, 24] was 95, the “Corn plant response rating” value [3, 17] was 0 and the “Plant response rating, Corn” value [3, 18] was 5. For the same compound, the “Plant response rating, Corn” value [3, 19] was 10, the “Plant response rating, Corn” value [3, 20] was 0 and the “Plant response rating, Corn” value [3, 21] was 10. For the same compound, the “Plant response rating, Corn” value [3, 22] was 10, the “Corn plant response rating” value [3, 23] was 0 and the “Corn plant response rating” value [3, 24] was 0. For the same compound, the “Johnsongrass plant response rating” value [4, 17] was 5, the “Plant response rating, Johnsongrass” value [4, 18] was 10 and the “Plant response rating, Johnsongrass” value [4, 19] was 10. The “Plant response rating, Johnsongrass” value [4, 20] was 0, the “Plant response rating, Johnsongrass” value [4, 21] was 0 and the “Plant response rating, Johnsongrass” value [4, 22] was 5. The “Johnsongrass plant response rating” value [4, 23] was 10, the “Johnsongrass plant response rating” value [4, 24] was 5 and the “Ryegrass, Italian plant response rating” value [5, 17] was 50. The “Plant response rating, Ryegrass, Italian” value [5, 18] was 85, the “Plant response rating, Ryegrass, Italian” value [5, 19] was 80 and the “Plant response rating, Ryegrass, Italian” value [5, 20] was 55. The “Plant response rating, Ryegrass, Italian” value [5, 21] was 50, the “Plant response rating, Ryegrass, Italian” value [5, 22] was 80 and the “Ryegrass, Italian plant response rating” value [5, 23] was 90. The “Ryegrass, Italian plant response rating” value [5, 24] was 80, the “Pigweed plant response rating” value [6, 17] was 85 and the “Plant response rating, Pigweed” value [6, 18] was 98. For the same compound, the “Plant response rating, Pigweed” value [6, 19] was 100, the “Plant response rating, Pigweed” value [6, 20] was 100 and the “Plant response rating, Pigweed” value [6, 21] was 100. For the same compound, the “Plant response rating, Pigweed” value [6, 22] was 100, the “Pigweed plant response rating” value [6, 23] was 100 and the “Pigweed plant response rating” value [6, 24] was 95. For the same compound, the “Waterhemp plant response rating” value [7, 17] was 85, the “Plant response rating, Waterhemp” value [7, 18] was 95 and the “Plant response rating, Waterhemp” value [7, 19] was 95. For the same compound, the “Plant response rating, Waterhemp” value [7, 20] was 98, the “Plant response rating, Waterhemp” value [7, 21] was 100 and the “Plant response rating, Waterhemp” value [7, 22] was 100. The “Waterhemp plant response rating” value [7, 23] was 100, the “Waterhemp plant response rating” value [7, 24] was 90 and the “Blackgrass plant response rating” value [8, 17] was 15. The “Plant response rating, Blackgrass” value [8, 18] was 60, the “Plant response rating, Blackgrass” value [8, 19] was 40 and the “Plant response rating, Blackgrass” value [8, 20] was 50. The “Plant response rating, Blackgrass” value [8, 21] was 55, the “Plant response rating, Blackgrass” value [8, 22] was 55 and the “Blackgrass plant response rating” value [8, 23] was 80. The “Blackgrass plant response rating” value [8, 24] was 5, the “Wheat plant response rating” value [9, 17] was 0 and the “Plant response rating, Wheat” value [9, 18] was 0. For the same compound, the “Plant response rating, Wheat” value [9, 19] was 0, the “Plant response rating, Wheat” value [9, 20] was 0 and the “Plant response rating, Wheat” value [9, 21] was 0. The “Plant response rating, Wheat” value [9, 22] was 0, the “Wheat plant response rating” value [9, 23] was 0 and the “Wheat plant response rating” value [9, 24] was 50. For the same compound, the “Morningglory plant response rating” value [10, 17] was 95, the “Plant response rating, Morningglory” value [10, 18] was 98 and the “Plant response rating, Morningglory” value [10, 19] was 100. The “Plant response rating, Morningglory” value [10, 20] was 80, the “Plant response rating, Morningglory” value [10, 21] was 90 and the “Plant response rating, Morningglory” value [10, 22] was 95. The “Morningglory plant response rating” value [10, 23] was 98, the “Morningglory plant response rating” value [10, 24] was 98 and the “Barnyardgrass plant response rating” value [11, 17] was 15. For the same compound, the “Plant response rating, Barnyardgrass” value [11, 18] was 55, the “Plant response rating, Barnyardgrass” value [11, 19] was 20 and the “Plant response rating, Barnyardgrass” value [11, 20] was 15. For the same compound, the “Plant response rating, Barnyardgrass” value [11, 21] was 35, the “Plant response rating, Barnyardgrass” value [11, 22] was 65 and the “Barnyardgrass plant response rating” value [11, 23] was 85. For the same compound, the “Barnyardgrass plant response rating” value [11, 24] was 30, the “Soybean plant response rating” value [12, 17] was 5 and the “Plant response rating, Soybean” value [12, 18] was 10. The “Plant response rating, Soybean” value [12, 19] was 10, the “Plant response rating, Soybean” value [12, 20] was 0 and the “Plant response rating, Soybean” value [12, 21] was 90. For the same compound, the “Plant response rating, Soybean” value [12, 22] was 0, the “Soybean plant response rating” value [12, 23] was 20 and the “Soybean plant response rating” value [12, 24] was 5. For the same compound, the “Crabgrass, Large plant response rating” value [13, 17] was 20, the “Plant response rating, Crabgrass, Large” value [13, 18] was 35 and the “Plant response rating, Crabgrass, Large” value [13, 19] was 55. The “Plant response rating, Crabgrass, Large” value [13, 20] was 40, the “Plant response rating, Crabgrass, Large” value [13, 21] was 40 and the “Plant response rating, Crabgrass, Large” value [13, 22] was 75. For the same compound, the “Crabgrass, Large plant response rating” value [13, 23] was 60, the “Crabgrass, Large plant response rating” value [13, 24] was 25 and the “Ragweed plant response rating” value [14, 17] was 90. The “Plant response rating, Ragweed” value [14, 18] was 95, the “Plant response rating, Ragweed” value [14, 19] was 98 and the “Plant response rating, Ragweed” value [14, 20] was 90. The “Plant response rating, Ragweed” value [14, 21] was 90, the “Plant response rating, Ragweed” value [14, 22] was 95 and the “Ragweed plant response rating” value [14, 23] was 100. The “Ragweed plant response rating” value [14, 24] was 95, the “Kochia plant response rating” value [15, 17] was 50 and the “Plant response rating, Kochia” value [15, 18] was 90. For the same compound, the “Plant response rating, Kochia” value [15, 19] was 95, the “Kochia plant response rating” value [15, 24] was 90 and the “Oat, Wild plant response rating” value [16, 17] was 45. The “Plant response rating, Oat, Wild” value [16, 18] was 60, the “Plant response rating, Oat, Wild” value [16, 19] was 85 and the “Oat, Wild plant response rating” value [16, 24] was 50.
